Drawing on ChEMBL document CHEMBL2163249, “Exploration of natural compounds as sources of new bifunctional scaffolds targeting cholinesterases and beta amyloid aggregation: the case of chelerythrine” (Bioorg Med Chem, 2012), this text covers inhibition for 56 molecules.

A word on the inhibition: it is the change of the read-out against control, counted positive when it falls.

Test [1] deals with Acetylcholinesterase (Electrophorus electricus) (UniProt O42275). To be noted: at 2 mg/mL.
Description: Inhibition of electric eel AChE at 2 mg/ml by Ellman's method
In test [2] the target is Cholinesterase (Equus caballus) (UniProt P81908). The settings on record: at 2 mg/mL.
Cholinesterase (Equus caballus), sequence (P81908 whole entry): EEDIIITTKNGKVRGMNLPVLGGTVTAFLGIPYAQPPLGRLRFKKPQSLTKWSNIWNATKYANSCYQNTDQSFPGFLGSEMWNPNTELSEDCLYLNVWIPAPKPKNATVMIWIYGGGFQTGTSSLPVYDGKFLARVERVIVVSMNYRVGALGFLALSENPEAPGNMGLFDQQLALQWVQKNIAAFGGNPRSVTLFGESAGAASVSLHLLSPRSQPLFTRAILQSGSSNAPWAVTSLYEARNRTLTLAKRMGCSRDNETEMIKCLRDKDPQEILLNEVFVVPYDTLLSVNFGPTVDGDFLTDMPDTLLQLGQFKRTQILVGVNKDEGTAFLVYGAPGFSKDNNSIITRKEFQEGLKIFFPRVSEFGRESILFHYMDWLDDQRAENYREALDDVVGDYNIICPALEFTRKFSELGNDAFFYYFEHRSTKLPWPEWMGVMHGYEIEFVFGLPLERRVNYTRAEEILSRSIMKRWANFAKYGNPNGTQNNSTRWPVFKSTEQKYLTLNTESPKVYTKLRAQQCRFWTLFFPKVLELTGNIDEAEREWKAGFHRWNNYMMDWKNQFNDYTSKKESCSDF
Description: Inhibition of horse BChE at 2 mg/ml by Ellman's method

In the case of `CC1(C)CCC[C@](C)([C@H]2CC[C@]3(C)[C@@H]2[C@H](O)C[C@@H]2[C@@]4(C)CC[C@H](O)C(C)(C)[C@@H]4[C@@H](O)C[C@]23C)O1`, the inhibition in test [1] was 6.16%; in test [2] it was 8.34%.
In the same order, the values of `C[C@@H]1C(=O)O[C@H]2[C@H](O)[C@@]34[C@H]5C[C@@H](C(C)(C)C)[C@]36[C@@H](OC(=O)[C@@H]6O)O[C@@]4(C(=O)O5)[C@@]12O` are -7.35% and 9.99%.
In the same order, the values of `CO[C@H]1[C@H](O)[C@H](O[C@H]2CC[C@@]3(C=O)[C@H](CC[C@@H]4[C@@H]3CC[C@]3(C)[C@@H](C5=CC(=O)OC5)CC[C@]43O)C2)O[C@@H](C)[C@@H]1O` are 4.45% and -1.96%.
As for `CC(C)CCNC(=O)[C@H](CC(C)C)NC(=O)[C@H]1O[C@@H]1C(=O)O`, the inhibition in test [1] was -1.94%; in test [2] it was 10.6%.
In the same order, the values of `CCCC[C@@H](C)[C@@H](OC(=O)C[C@@H](CC(=O)O)C(=O)O)[C@H](C[C@@H](C)CCCCCC[C@@H](O)C[C@H](O)[C@H](C)N)OC(=O)C[C@@H](CC(=O)O)C(=O)O` are -8.37% and 15.1%.
In the same order, the values of `C=C(C)[C@@H]1CC[C@]2(CO)CC[C@]3(C)[C@H](CC[C@@H]4[C@@]5(C)CC[C@H](O)C(C)(C)[C@@H]5CC[C@]43C)[C@@H]12` are 7.09% and 0.47%.
Taken in the same sequence, the figures for `Oc1cc(O)cc(/C=C/c2ccc(O)c(O)c2)c1` were 17% and 2.21%.
In the case of `CCN1C[C@]2(COC)[C@H](O)C[C@H](OC)[C@@]34[C@@H]5C[C@@]6(O)[C@H](OC(=O)c7ccccc7)[C@@H]5[C@@](OC(C)=O)([C@@H]([C@H](OC)[C@H]23)[C@@H]14)[C@@H](O)[C@@H]6OC`, the inhibition in test [1] turned out to be 17.6%; in test [2], 3.01%.
Taken in the same sequence, the figures for `O=C1C=C2C=C[C@@H]3C[C@@]2(O1)[C@H]1CCCCN31` were 7.44% and 6.85%.
In the same order, the values of `CC1=NCCc2c1[nH]c1cc(O)ccc21` are 41.8% and 34.5%.
Taken in the same sequence, the figures for `CC1(C)C2CCC1(C(=O)O)C(=O)C2` (configuration not stated) were 16.7% and -2.51%.
Consider `c1cc2c(cc1[C@H]1OC[C@@H]3[C@H]1CO[C@H]3c1ccc3c(c1)OCO3)OCO2`, for which the inhibition in test [1] is 4.7%; in test [2], -3.5%.
Take `CC[C@@]1(O)C(=O)OCc2c1cc1n(c2=O)Cc2cc3cc(O)ccc3nc2-1`: the inhibition in test [1] was -5.24%; in test [2] it was 6.63%.
Taken in the same sequence, the figures for `COc1ccc(/C=C/C(=O)c2c(O)cc(OC)cc2OC)cc1` were -6.03% and -9.95%.
Taken in the same sequence, the figures for `CN1[C@@H](CC(=O)c2ccccc2)CCC[C@H]1C[C@H](O)c1ccccc1` were -0.17% and 30.4%.
In the same order, the values of `CCCCC[C@H](O)/C=C/[C@H]1C=CC(=O)[C@@H]1CCCCCCC(=O)O` are 15.3% and -1.82%.
Regarding `CC[C@@]1(O)C(=O)OCc2c1cc1n(c2=O)Cc2cc3ccccc3nc2-1`, the inhibition was found to be 14.1% in test [1] and 3.9% in test [2].
In the same order, the values of `O[C@H]1[C@H]2[C@H](O)CCCN2C[C@H]1O` are 5.09% and -2.04%.
In the same order, the values of `COc1ccc(C(=O)OC2C[C@H]3CC[C@H](C2)N3C)cc1OC` (some centres not stated) are 49.5% and 1%.
In the same order, the values of `CC1=C2C[C@H]3[C@@H](CC=C4C[C@@H](O)CC[C@@]43C)[C@@H]2CC[C@]12O[C@@H]1C[C@H](C)CN[C@H]1[C@H]2C` are -3.81% and 5.84%.
`COc1cc(-c2oc3cc(O)cc(O)c3c(=O)c2O[C@@H]2O[C@H](CO)[C@@H](O)[C@H](O)[C@H]2O)ccc1O`: the inhibition in test [1] was 30.6%; in test [2], 1.08%.
In the same order, the values of `COc1cccc2oc(-c3ccccc3)cc(=O)c12` are 37.5% and 18.3%.
In the same order, the values of `CC1=C[C@]23C(=O)[C@@H](C=C(CO)[C@@H](O)[C@]2(O)[C@H]1O)[C@H]1[C@@H](C[C@H]3C)C1(C)C` are -4.51% and -1.75%.
Taken in the same sequence, the figures for `COc1cc2c(c(OC)c1OC)-c1ccc(OC)c(=O)cc1[C@@H](NC(C)=O)CC2` were 0.14% and 0.1%.
Consider `c1coc(CNc2ncnc3[nH]cnc23)c1`, for which the results for the inhibition in test [1] and in test [2] were -5.12% and 3.13%, respectively.
In the same order, the values of `CCN1C[C@]2(COC)CC[C@H](O)[C@@]34C5C[C@@H]6[C@@H](OC)C[C@](O)(C(CC23)C14)C5[C@H]6OC(C)=O` (some centres not stated) are 28.9% and -0.23%.
In the same order, the values of `CC(=O)C1=C(O)C=C2Oc3c(C(C)=O)c(O)c(C)c(O)c3[C@@]2(C)C1=O` are 2.06% and 4.28%.
In the same order, the values of `COc1ccc([C@@H]2CC(=O)c3c(O)cc(O[C@@H]4O[C@H](CO)[C@@H](O)[C@H](O)[C@H]4O[C@@H]4O[C@@H](C)[C@H](O)[C@@H](O)[C@H]4O)cc3O2)cc1O` are 4.86% and 0.1%.
On to `COc1cc([C@@H]2CC(=O)c3c(O)cc(O)cc3O2)ccc1O`, for which the figures for the inhibition in test [1] and in test [2] were 29.5% and 3.1%, respectively.
In the same order, the values of `Cc1cc(Cc2cc(C)cc(C(C)(C)C)c2O)c(O)c(C(C)(C)C)c1` are -4.45% and 0.28%.
On to `C[C@@H]1O[C@@H](OC[C@H]2O[C@@H](Oc3cc(O)c4c(c3)O[C@H](c3ccc(O)cc3)CC4=O)[C@H](O)[C@@H](O)[C@@H]2O)[C@H](O)[C@H](O)[C@H]1O`, for which the inhibition is 22.1% in test [1] and -0.5% in test [2].
`C[C@]1(C(=O)O)CCC[C@]2(C)c3cc(O)ccc3CC[C@@H]12`: the values for the inhibition in test [1] and in test [2] were -4.47% and -2.99%, respectively.
Turning to `C/C=C1/C[C@@H](C)[C@@](C)(O)C(=O)OCC2=CCN3CC[C@@H](OC1=O)[C@@H]23`, the inhibition amounted to 7.46% in test [1] and 19.2% in test [2].
In the same order, the values of `COc1ccc(-c2cc(=O)c3c(O)cc(O)cc3o2)cc1` are -1.38% and -2.17%.
Taken in the same sequence, the figures for `O=C(/C=C/c1ccc(O)cc1)CC(=O)/C=C/c1ccc(O)cc1` were 2% and 7.13%.
In the same order, the values of BLEOMYCIN are 10.2% and 10.8%.
`COc1cc2c3cc1Oc1c(OC)c(OC)cc4c1[C@@H](Cc1ccc(O)c(c1)Oc1ccc(cc1)C[C@@H]3N(C)CC2)N(C)CC4`: the inhibition in test [1] is 11.4%; in test [2], 68.5%.
As for `CCOC(=O)C1=C[C@]2(CC)CCCN3CCc4c(n1c1ccccc41)[C@@H]32`, the inhibition in test [1] is 12.3%; in test [2], 29.1%.
Taken in the same sequence, the figures for `C[C@H]1[C@H]2CC[C@H]3[C@@H]4CC=C5C[C@@H](N(C)C)CC[C@]5(C)[C@H]4CC[C@]23CN1C` were 29.9% and 45.2%.
Turning to `CC1=CC(=O)C2=C(C)CC[C@@H]3[C@H](OC(=O)[C@H]3C)[C@@H]12`, the inhibition in test [1] is -3.63%; in test [2], 0.28%.
For the molecule `CC(=O)N[C@H]1[C@@H](O[C@@H]2O[C@H](C[C@@H](O)[C@@H]3O[C@H](n4ccc(=O)[nH]c4=O)[C@@H](O)[C@H]3O)[C@H](O)[C@H](O)[C@H]2NC(=O)/C=C/CCCCCCCCCCC(C)C)O[C@H](CO)[C@@H](O)[C@@H]1O`, the inhibition in test [1] amounted to 14.2%; in test [2] it was 1.57%.
In the same order, the values of `C=C1C(=O)[C@]23[C@H](O)[C@H]1CC[C@H]2[C@@]12CO[C@]3(O)[C@@H](O)[C@@H]1C(C)(C)CC[C@@H]2O` are 24.7% and 0.03%.
Taken in the same sequence, the figures for `C=CCc1cc(OC)c2c(c1)OCO2` were 6.75% and -9.87%.
In the same order, the values of `COc1ccc2cc1Oc1ccc(cc1)C[C@H]1c3cc(c(OC)cc3CCN1C)Oc1c(OC)c(OC)cc3c1[C@H](C2)N(C)CC3` are 15.5% and -1.1%.
In the case of `COc1ccc2c(OC)c3ccoc3nc2c1OC`, the inhibition was 39.3% in test [1] and 6.79% in test [2].
In the same order, the values of `COc1cc2c(c(OC)c1OC)-c1c(cc(OC)c(OC)c1OC)C[C@H](C)[C@H](C)C2` are -1.7% and -4.82%.
In the case of `CCCCC[C@H](O)/C=C/[C@@H]1[C@@H](C/C=C\CCCC(=O)O)[C@@H](O)C[C@H]1O`, the inhibition is 12.9% in test [1] and 5.03% in test [2].
Taken in the same sequence, the figures for `O=C1c2c(O)cc(O)cc2O[C@H](c2ccc(O)c(O)c2)[C@H]1O` were 17.8% and 0.97%.
In the same order, the values of `C[C@@H]1[C@H](O)[C@@H](C)/C=C/C=C/C=C/C=C/C=C/C=C/C=C/[C@H](O[C@@H]2O[C@H](C)[C@@H](O)[C@H](N)[C@@H]2O)C[C@@H]2O[C@](O)(C[C@@H](O)C[C@@H](O)[C@H](O)CC[C@@H](O)C[C@@H](O)CC(=O)O[C@H]1C)C[C@H](O)[C@H]2C(=O)O` are 8.91% and 11.9%.
In the same order, the values of `C=C[C@@](C)(O)CC[C@H]1C(=C)CC[C@H]2C(C)(C)CCC[C@]12C` are 21.8% and 0.47%.
As to `O=C1C[C@@H](c2ccc(O)cc2)Oc2cc(O)cc(O)c21`, the inhibition was determined as 7.24% in test [1] and 0.68% in test [2].
With `C=C1CC[C@H]2C(=C)CC[C@H]3C(=C)C(=O)O[C@@H]3[C@@H]12`, the inhibition turned out to be 4.06% in test [1] and 10.7% in test [2].
In the case of `C/C1=C\CC(C)(C)/C=C/C(=O)/C(C)=C/CC1`, the inhibition in test [1] is -4.84%; in test [2], 4.2%.
In the same order, the values of `CN1[C@@H]2CC[C@H]1C[C@@H](OC(=O)[C@H](CO)c1ccccc1)C2` are 15.5% and 3.5%.
As to `CC1(C)CCC2=C(O1)c1ccccc1C(=O)C2=O`, the inhibition in test [1] was -2.91%; in test [2], 11.2%.
In the same order, the values of `N#C[C@H](O[C@@H]1O[C@H](CO[C@@H]2O[C@H](CO)[C@@H](O)[C@H](O)[C@H]2O)[C@@H](O)[C@H](O)[C@H]1O)c1ccccc1` are 0.78% and 5.7%.
